Test results reported in patent publication US20060069132A1, “Azolecarboxamide herbicides” (priority 2004, published 2006).

What was measured:
velvetleaf = assay: Test B pre-/postemergence herbicide test; assay type: in vivo, Abutilon theophrasti
In short: (§1)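 Formulation: non-phytotoxic solvent mix with surfactant. Timing: preemergence on seed and postemergence on 2–18 cm plants, applied concurrently. Readout after 13–15 d greenhouse: visual 0–100 control rating against controls.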

barnyardgrass [1] = assay: Test B pre-/postemergence herbicide test; assay type: in vivo, Echinochloa crus-galli
In short: (§2)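 Species tested were Echinochloa crus-galli, Ipomoea coccinea, Xanthium strumarium and Oryza sativa, treated both before emergence and at the 1- to 4-leaf stage; rice and barnyardgrass were also tested under flooding at 2 leaves. Greenhouse incubation lasted 13–15 days before visual 0–100 scoring.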

[2] = tested on: small flower umbrella sedge; assay: Test B flooded paddy test; assay type: in vivo, Cyperus difformis; conditions: 1000 g ai/ha, scale 0 to 100 (0 no effect, 100 complete control)
In short: (§3)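 Plants grow to 1- to 4-leaf stage (2–18 cm) for postemergence spraying, or to 2-leaf stage for the paddy test. Formulated compound is applied. Greenhouse holding lasts 13–15 days. Response is scored visually relative to controls, 0 no effect to 100 complete control; a dash means no result.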

Surinam grass = assay: Test B pre-/postemergence herbicide test; assay type: in vivo, Urochloa decumbens
In short: as §1

morningglory = assay: Test B pre-/postemergence herbicide test; assay type: in vivo, Ipomoea coccinea
In short: as §2

cocklebur = assay: Test B pre-/postemergence herbicide test; assay type: in vivo, Xanthium strumarium
In short: as §2

wild oat = assay: Test B postemergence herbicide test; assay type: in vivo, Avena fatua; conditions: postemergence
In short: as §3

barnyardgrass [3] = assay: Test C flooded paddy test; assay type: in vivo, Echinochloa crus-galli; conditions: for Plant response rating, Barnyardgrass: 500 g ai/ha, visual rating after 12 to 14 days
In short: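 Visual rating, 0 (no effect) to 100 (complete control), vs. controls at 12–14 d in greenhouse. Postemergence: 1–4-leaf plants, 2–18 cm. Paddy: flooded, barnyardgrass at 2-leaf stage.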

blackgrass = assay: Test B postemergence herbicide test; assay type: in vivo, Alopecurus myosuroides; conditions: postemergence
In short: as §3

ducksalad [4] = assay: Test C flooded paddy test; assay type: in vivo, Heteranthera limosa; conditions: for Plant response rating, Ducksalad: 500 g ai/ha, visual rating after 12 to 14 days
[5] = tested on: smallflower umbrella sedge; assay: Test C flooded paddy test; assay type: in vivo, Cyperus difformis; conditions: for Plant response rating, Sedge, Umbrella: 500 g ai/ha, visual rating after 12 to 14 days
rice [6] = assay: Test B pre-/postemergence herbicide test; assay type: in vivo, Oryza sativa; conditions: preemergence; for Plant response rating, Rice: 500 g ai/ha
In short: as §1

rice [7] = assay: Test B flooded paddy test; assay type: in vivo, Oryza sativa; conditions: 1000 g ai/ha, scale 0 to 100 (0 no effect, 100 complete control)
In short: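 Scale 0–100: zero equals no visible effect, 100 complete control, judged by eye relative to controls. Timing: 13 to 15 days in greenhouse post-treatment. Growth stage at spraying: two leaves (paddy) or one to four leaves, 2–18 cm (postemergence).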

wheat = assay: Test B postemergence herbicide test; assay type: in vivo, Triticum aestivum; set-up: key to Wheat plant response rating: 0 = no effect, 100 = complete control; conditions: postemergence
In short: as §3

rice [8] = assay: Test C flooded paddy test; assay type: in vivo, Oryza sativa; conditions: for Plant response rating, Rice: 500 g ai/ha, visual rating after 12 to 14 days
In short: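 Plants were grown to the 1- to 4-leaf stage (2–18 cm) and then treated postemergence, or grown to the 2-leaf stage for the flooded paddy test. They were held in a greenhouse for 12 to 14 days and then scored by eye against controls, where 0 is no effect and 100 is complete control.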

lambsquarters = assay: Test B pre-/postemergence herbicide test; assay type: in vivo, Chenopodium album
In short: as §1

pigweed = assay: Test B pre-/postemergence herbicide test; assay type: in vivo, Amaranthus retroflexus
In short: as §1

barnyardgrass [9] = assay: Test B flooded paddy test; assay type: in vivo, Echinochloa crus-galli; conditions: 1000 g ai/ha, scale 0 to 100 (0 no effect, 100 complete control)
In short: as §3

corn = assay: Test B pre-/postemergence herbicide test; assay type: in vivo, Zea mays
In short: as §1

large crabgrass = assay: Test B pre-/postemergence herbicide test; assay type: in vivo, Digitaria sanguinalis
In short: as §1

giant foxtail = assay: Test B pre-/postemergence herbicide test; assay type: in vivo, Setaria faberi
In short: as §1

ducksalad [10] = assay: Test B flooded paddy test; assay type: in vivo, Heteranthera limosa; conditions: 1000 g ai/ha, scale 0 to 100 (0 no effect, 100 complete control)
In short: as §3

[11] = 125 g ai/ha; visual rating, scale 0 (no effect) to 100 (complete control); postemergence
[12] = 500 g ai/ha; visual rating, 0 = no effect, 100 = complete control; preemergence
[13] = postemergence, 500 g ai/ha; scale 0 to 100, 0 is no effect, 100 is complete control
[14] = 125 g ai/ha; 0 = no effect, 100 = complete control; preemergence
[15] = 125 g ai/ha, visual rating, scale 0 (no effect) to 100 (complete control)
[16] = 500 g ai/ha, scale 0 to 100, 0 is no effect, 100 is complete control
[17] = 62 g ai/ha, scale 0 to 100 (0 no effect, 100 complete control)
[18] = 125 g ai/ha, scale 0 to 100 (0 no effect, 100 complete control)
[19] = 250 g ai/ha, scale of 0 to 100, 0 is no effect, 100 is complete control
[20] = scale 0 to 100 (0 no effect, 100 complete control)
[21] = 500 g ai/ha; visual rating 0-100, 0 no effect, 100 complete control; preemergence
[22] = postemergence, 125 g ai/ha; visual rating, scale 0 (no effect) to 100 (complete control)
[23] = postemergence, 500 g ai/ha; visual rating, scale 0 (no effect) to 100 (complete control)
[24] = preemergence, 125 g ai/ha; 0 to 100 scale, 0 is no effect, 100 is complete control

C#CCNC(=O)c1ccc(F)c(NC(=O)c2cc(C3(C)CC3)nn2CC)c1 [Compound 302]
25: Ducksalad plant response rating (ducksalad [4]; [18])
75: Sedge, Umbrella plant response rating [5, 19]
90: Pigweed plant response rating (pigweed; [13]) | Ducksalad plant response rating (ducksalad [10])
10: Velvetleaf plant response rating (velvetleaf; [11]) | Velvetleaf plant response rating (velvetleaf; [13]) | Barnyardgrass plant response rating (barnyardgrass [1]; [11]) | Surinam Grass plant response rating (0 to 100 scale) (Surinam grass; [14]) | Surinam Grass plant response rating (Surinam grass; [13]) | Plant response rating, Morningglory (morningglory; [12]) | Cocklebur plant response rating (cocklebur; [11]) | Cocklebur plant response rating (cocklebur; [13]) | Oat, Wild plant response rating (wild oat; [16]) | Barnyardgrass plant response rating (barnyardgrass [3]; [19]) | Blackgrass plant response rating (blackgrass; [15]) | Plant response rating, Rice (rice [6]; visual rating, 0 = no effect, 100 = complete control) | Wheat plant response rating (wheat; [16]) | Corn plant response rating (corn; [11]) | Plant response rating, Corn (corn; [12]) | Crabgrass, Large plant response rating (large crabgrass; [13])
40: Barnyardgrass plant response rating (barnyardgrass [1]; [13])
50: Sedge, Umbrella plant response rating [5, 18] | Corn plant response rating (corn; [13])
60: Plant response rating, Barnyardgrass (barnyardgrass [1]; [12]) | Morningglory plant response rating (morningglory; [13]) | Lambsquarters plant response rating (lambsquarters; [11])
80: Plant response rating, Velvetleaf (velvetleaf; [12]) | Sedge, Umbrella plant response rating [2] | Pigweed plant response rating (pigweed; [11])
70: Rice plant response rating (rice [7]) | Lambsquarters plant response rating (lambsquarters; [13]) | Barnyardgrass plant response rating (barnyardgrass [9]) | Crabgrass, Large plant response rating (0 to 100 scale) (large crabgrass; [14])
20: Blackgrass plant response rating (blackgrass; [16]) | Foxtail, Giant plant response rating (giant foxtail; [13])
100: Plant response rating, Lambsquarters (lambsquarters; [12]) | Pigweed plant response rating (0 to 100 scale) (pigweed; [14]) | Plant response rating, Pigweed (pigweed; [12]) | Plant response rating, Crabgrass, Large (large crabgrass; [12])
55: Plant response rating, Rice (rice [8]; [20])
15: Sedge, Umbrella plant response rating ([5]; 62 g ai/ha, scale 0 to 100)
30: Plant response rating, Surinam Grass (Surinam grass; [12]) | Morningglory plant response rating (morningglory; [11]) | Ducksalad plant response rating (ducksalad [4]; [19]) | Plant response rating, Foxtail, Giant (giant foxtail; [12])
35: Plant response rating, Barnyardgrass (barnyardgrass [3]; [20])
0: Barnyardgrass plant response rating (0 to 100 scale) (barnyardgrass [1]; [14]) | Surinam Grass plant response rating (Surinam grass; [11]) | Morningglory plant response rating (0 to 100 scale) (morningglory; [14]) | Cocklebur plant response rating (0 to 100 scale) (cocklebur; [14]) | Plant response rating, Cocklebur (cocklebur; [12]) | Oat, Wild plant response rating (wild oat; [15]) | Barnyardgrass plant response rating (barnyardgrass [3]; [17]) | Barnyardgrass plant response rating (barnyardgrass [3]; [18]) | Ducksalad plant response rating (ducksalad [4]; 62 g ai/ha, scale 0 to 100) | Rice plant response rating (0 to 100 scale) (rice [6]; 125 g ai/ha, 0 = no effect, 100 = complete control) | Wheat plant response rating (wheat; [15]) | Rice plant response rating (rice [8]; 62 g ai/ha, scale 0 to 100) | Rice plant response rating (rice [8]; [18]) | Rice plant response rating (rice [8]; [19]) | Lambsquarters plant response rating (0 to 100 scale) (lambsquarters; [14]) | Corn plant response rating (0 to 100 scale) (corn; [14]) | Crabgrass, Large plant response rating (large crabgrass; [11]) | Foxtail, Giant plant response rating (0 to 100 scale) (giant foxtail; [14]) | Foxtail, Giant plant response rating (giant foxtail; [11])
85: Plant response rating, Ducksalad (ducksalad [4]; [20]) | Plant response rating, Sedge, Umbrella [5, 20]

C=CCN(C)C(=O)c1ccnc(NC(=O)c2cc(C(C)(C)C)nn2CC)c1 [Compound 159]
100: Plant response rating, Cocklebur (cocklebur; [21]) | Plant response rating, Ducksalad (ducksalad [4]; [20]) | Plant response rating, Lambsquarters (lambsquarters; [21]) | Plant response rating, Lambsquarters (lambsquarters; [24]) | Plant response rating, Pigweed (pigweed; [21]) | Plant response rating, Pigweed (pigweed; [24])
60: Plant response rating, Surinam Grass (Surinam grass; [24]) | Sedge, Umbrella plant response rating [5, 19] | Rice plant response rating (rice [7]; visual rating, 13 to 15 days) | Rice plant response rating (rice [8]; [17]) | Rice plant response rating (rice [8]; [18]) | Plant response rating, Foxtail, Giant (giant foxtail; [21])
10: Morningglory plant response rating (morningglory; [22]) | Morningglory plant response rating (morningglory; [23]) | Sedge, Umbrella plant response rating [5, 17]
0: Barnyardgrass plant response rating (barnyardgrass [1]; [22]) | Barnyardgrass plant response rating (barnyardgrass [1]; [23]) | Surinam Grass plant response rating (Surinam grass; [22]) | Plant response rating, Corn (corn; [21]) | Corn plant response rating (corn; [22]) | Corn plant response rating (corn; [23]) | Plant response rating, Corn (corn; [24]) | Crabgrass, Large plant response rating (large crabgrass; [22]) | Crabgrass, Large plant response rating (large crabgrass; [23])
20: Velvetleaf plant response rating (velvetleaf; [22]) | Surinam Grass plant response rating (Surinam grass; [23])
40: Plant response rating, Morningglory (morningglory; [21]) | Sedge, Umbrella plant response rating [5, 18] | Plant response rating, Crabgrass, Large (large crabgrass; [24]) | Foxtail, Giant plant response rating (giant foxtail; [22])
70: Velvetleaf plant response rating (velvetleaf; [23]) | Plant response rating, Barnyardgrass (barnyardgrass [1]; [24]) | Sedge, Umbrella plant response rating ([2]; visual rating, 13 to 15 days) | Plant response rating, Surinam Grass (Surinam grass; [21]) | Barnyardgrass plant response rating (barnyardgrass [3]; [19]) | Plant response rating, Rice (rice [6]; visual rating 0-100, 0 no effect, 100 complete control) | Plant response rating, Crabgrass, Large (large crabgrass; [21])
80: Plant response rating, Velvetleaf (velvetleaf; [24]) | Cocklebur plant response rating (cocklebur; [22]) | Cocklebur plant response rating (cocklebur; [23]) | Plant response rating, Barnyardgrass (barnyardgrass [3]; [20]) | Ducksalad plant response rating (ducksalad [4]; [17]) | Plant response rating, Sedge, Umbrella [5, 20] | Rice plant response rating (rice [8]; [19]) | Pigweed plant response rating (pigweed; [22]) | Pigweed plant response rating (pigweed; [23]) | Barnyardgrass plant response rating (barnyardgrass [9]; visual rating, 13 to 15 days)
90: Plant response rating, Velvetleaf (velvetleaf; [21]) | Plant response rating, Barnyardgrass (barnyardgrass [1]; [21]) | Plant response rating, Cocklebur (cocklebur; [24]) | Ducksalad plant response rating (ducksalad [4]; [18]) | Ducksalad plant response rating (ducksalad [4]; [19]) | Plant response rating, Rice (rice [8]; [20]) | Lambsquarters plant response rating (lambsquarters; [22]) | Lambsquarters plant response rating (lambsquarters; [23]) | Ducksalad plant response rating (ducksalad [10]; visual rating, 13 to 15 days)
50: Barnyardgrass plant response rating (barnyardgrass [3]; 125 g ai/ha, scale of 0 to 100, 0 is no effect, 100 is complete control) | Foxtail, Giant plant response rating (giant foxtail; [23]) | Plant response rating, Foxtail, Giant (giant foxtail; [24])
30: Plant response rating, Morningglory (morningglory; [24]) | Barnyardgrass plant response rating (barnyardgrass [3]; [17])
